The structures appear in SMILES notation.

The experiment has as its target HmbR (Neisseria meningitidis, UniProt Q9JYA8). The experiment in a line: UV-vis absorption and EPR of ferric heme-bound HmbR. The class given is binding. Particulars: 500 mM imidazole, pH 7.4; sixth axial ligand of the bound ferric heme.

`c1c[nH]cn1` [imidazole]: the “UV-vis absorption and EPR of ferric heme-bound HmbR” value is “change from pentacoordinate to hexacoordinate ligation upon addition of exogenous imidazole to ferric holoHmbR”.

(Values after article PMC4439194 (Biochimica et biophysica acta, 2014).)
